Patent US11285180B2, “Methods of enhancing the potency of incretin-based drugs in subjects in need thereof” (INSERM (INSTITUT NATIONAL DE LA SANTE ET DE LA RECHERCHE …, priority 2016, dated 2022)

Key:
[1] = test system: meal-induced insulin secretion; settings: administered orally; healthy, type II diabetic patients, and diabetic mice; cited from earlier work
[2] = test system: GLP-1-induced insulin secretion; assay: In vivo GLP-1 stimulated insulin secretion (i.p. GLP-1, then i.v. glucose challenge); parameters: species or system mice
Method: (§1) To evaluate GLP-1 sensitivity three GLP-1 regulated parameters were quantified: insulin secretion, gastric emptying, and food intake. To prevent from the degradation of exogenous GLP-1 a DPP4 inhibitor (400 μg/mouse sitagliptin) was given orally 30 min before the GLP-1 challenge.
Since GLP-1 insulinotropic effect is glucose dependent we first assessed in vivo GLP-1 stimulated insulin secretion in hyperglycemic conditions. The mice were first fasted for 6 h before the GLP-1 and glucose challenges. Active GLP-17-36 (BACHEM, Switzerland) was then administered intraperitoneally at different doses (0, 2.2, 7, 20, 63 nmol/kg, diluted in distilled water) 5 min before the glucose challenge. In some sets of experiments a single active dose of 7 nmol/kg was tested. To induce hyperglycemic conditions a retrorbital i.v. glucose (1 g/kg) injection was realised. This procedure avoids the confounding effect of the oral glucose-induced gut-secreted GLP-1. Blood (30 μl) was collected from the tail vein 15 min after glucose challenge. Plasma insulin concentration was determined.
The dose-response curve was calculated by curve interpolation with 4-Parameter Logistic (4PL) sigmoidal model using GraphPad Prism version 6.00 for Mac (GraphPad Software, San Diego, Calif., USA; www.graphpad.com) and the ECso calculated.
(§2) Thirty minutes before all 3 GLP-1 challenge procedures, a NO synthase (NOS) inhibitor (L-NAME, Abcam) was administered i.p. at doses of 0, 50, 100, 200 μg/kg. In a different set of mice, a NO donor (L-Arginine, 1 g/kg, Sigma-Aldrich) was administered orally in the presence or absence of the GLP-1r antagonist, Exendin 9 (1 nmol/mice, 100 μL, i.p. injection, Bachem). To study the chronic effect of L-arginine in GLP-1 sensitivity, the molecule (0.5 g/kg, 300 μL, lgavage/day) was administered for one week.

gastric emptying = assay: GLP-1 regulated gastric emptying (oral acetaminophen, plasma acetaminophen); format: in vivo, mice
Method: as §1
For gastric emptying the glucose challenge was replaced by an oral administration of acetaminophen (SIGMA-Aldrich, […]). The plasma acetaminophen concentrations were assessed by colorimetric-based assay (SEKISUI diagnostics, Canada) in the plasma from tail blood during 15 min.
as §2

insulin secretion = assay: Oral glucose-induced insulin secretion after oral NO donor; format: in vivo, mice
Method: To identify oral glucose-induced insulin and GLP-1 secretions, all sets of mice were gavaged with glucose (2 g/kg). After 15 min, 30 μl of blood from the tip of the tail vein were sampled to assess plasma insulin concentration. 300 μl of portal vein blood were collected following an intravenous (i.v.) administration of a Ketamin (10 mg/kg)/Xylasin (1 mg/kg), to ensure an immediate anesthesia of the mice. This procedure allows performing portal vein blood sampling since it dramatically minimizes the impact of anesthesia on blood parameters. In addition, to prevent from the in vivo degradation of GLP-1 by DPP4, a DPP4 inhibitor (400 μg/mouse sitagliptin, MSD Rahway, N.J.) was administered orally 30 min before the oral gavage with glucose. Eventually, the portal blood was collected in the presence of protease inhibitors diprotin A (1 mM), aprotinin (0.2 μM) and EDTA (1 mM). Plasma hormones were assessed by ELISA (insulin, Mercodia; active GLP-17-36, Alpco). A GLP-1 resistance index for each mice was calculated from glucose, insulin and GLP-1 concentrations 15 min after the oral glucose load. Since the insulinotropic activity of GLP-1 depends upon the glycemic level we set the following equation: Glucose x GLP-1 concentrations/insulin concentration. In some experiments, distal ileum and left nodose ganglion were harvested from mice.
as §2

food intake = assay: GLP-1 regulated food intake (30 min after 16-hour fast); format: in vivo, mice
Method: as §1
Food intake was recorded for 30 min following a 16-hour period of fast.
as §2

distal ileum segment = assay: Ex vivo ileal real-time NO measurement; parameters: species or system mice
Method: The distal ileum segment from fed mice were washed in Krebs-Ringer bicarbonate/glucose buffer (pH 7.4) in an atmosphere containing 95% O2—5% CO2 and then immersed in Eppendorf tubes containing 400 μL of the same medium. After a 10 min recovery period, the spontaneous NO release in response to 10 μL of Krebs-Ringer solution (control), GLP-1 (150 nM) and/or Exendin 9 (375 nM) was measured at 37° C. for 10 min using a NO-specific amperometric probe (ISO-NOPF, […], 5 mm length, World Precision Instruments, Aston Stevenage, UK) implanted directly in the ileum. Data are expressed (Fournel et al., 2015).

primary enteric neurons = assay: GLP-1-induced NO production in primary cultures of enteric neurons (DAF-FM); format: cell-based, mice
Method: The protocol was adapted from Smith and colleagues (Smith et al., 2013). The ileum (last 9 cm) was harvested and kept in ice cold-carbogen bubbled-Krebs solution. The tissue was cut into 3 cm slices and kept on plastic rod. An incision was realized with a forceps where the mesentery was attached. The outer layers containing muscular cells and myenteric neurons (LMMP) were obtained by moving from top to bottom, along the gap. The LMMP were digested with collagenase II (1.3 mg/mL, Worthington) and BSA (0.3 mg/mL) in Krebs solution bubbled with carbogen 30 min in a 37° C. shaking bath. Digested cells were transferred in Hank Balanced salt Solution (HBSS)/trypsin solution (0.05%) 7 min in a 37° C. shaking bath. […]
Primary enteric neurons were grown for 7 days in culture. […] The fluorescence was measured on confocal Zeiss Laser Scanning Microscope LSM-780 equipped with 63×/1.4 NA oil immersion objective and a GaAsP detector with quantum yield of 45% with Black Zen software and analysed with Image J software. A region of interest (ROI) corresponding to identified nNOS positive cells was defined from where the DAF-FM or nNOS fluorescence mean per ROI was measured. The ratio of both values for each ROI was then calculated.

[3] = test system: cFos positive cells in the brain stem (NTS-DMNX); assay: c-FOS immunostaining in the brain stem after GLP-1; format: in vivo, mice
Method: Brain was removed and kept on PFA 4% overnight at 4° C. After washing in cold citrate buffer for 6 h, brain was warmed until boiling, washed in PBS, cooled to 4° C., then immersed in cold sucrose solutions (10% then 30% in PBS). After freezing on dry ice, the brain was stored at −80° C. and cut into 20 μm thick slices (cryostat, Thermo). The slices were washed 3 times with PBS, blocked with PBS, 0.3% Triton X100, 2% donkey serum and incubated with the c-fos antibody diluted in the same solution ( 1/10000, Santa Cruz) overnight at RT. After 16 h, the brain slices were washed 3 times with PBS and incubated with biotinylated antibody ( 1/2000, Jackson ImmunoResearch) diluted in the PBST solution (PBS, 0.3% Triton X100) for 1 h at RT. Brain slices were washed 3 times in PBS and incubated with the reagent A (avidin) and B (biotinylated enzyme) from Vectastain Elite ABC kit (Vector Laboratories) diluted in the PBST solution, 30 min at RT. Then, brain slices were washed 3 times in PBS and incubated with biotinylated tyramine solution (tyramine and biotin diluted in borate buffer/3% H2O2, pH=8.4), 20 min at RT. […] The fluorescence was analysed as above. We identified the Nucleus Tractus Solitary NTS and dorsal motor nucleus of vagus nerve DMNX area using a mouse brain atlas (Franklin and Paxinos, 1997) and we counted the number of cFOS positive cells/area corresponding to the NTS-DMNX.

[4] = L-NAME i.p. 30 min before GLP-1 challenge

Q: Which meal-induced insulin secretion [1] does the source give for `N=C(N)NCCC[C@H](N)C(=O)O` [L-Arginine] here?
A: improves

Q: And the “GLP-1-induced insulin secretion (GLP-1 sensitivity)” value ([2]; HFD diabetic mice, chronic NO-donor treatment (1 week))?
A: enhanced

Q: What about the gastric emptying (gastric emptying; HFD diabetic mice, NO-donor treatment) of the same molecule?
A: could also improve

Q: What about the gastric emptying inhibition (gastric emptying; oral NO donor, through the GLP-1r) of the same molecule?
A: can induce gastric emptying inhibition

Q: And the insulin secretion (insulin secretion; HFD GLP-1 resistant diabetic mice, oral and acute administration)?
A: improved insulin secretion

Q: And the “insulin secretion after oral glucose challenge” value (insulin secretion; NCD-fed mice, oral and acute treatment)?
A: induced insulin secretion

Q: With `COC(=O)[C@@H](N)CCCNC(=N)N[N+](=O)[O-]` [L-NAME] as the molecule, how does the “effect on GLP-1-induced insulin secretion” value ([2]; NCD mice, L-NAME i.p. 30 min before GLP-1 challenge) read?
A: partially reduced

Q: And the “effect on GLP-1-induced food intake inhibition” value (food intake; [4])?
A: but not GLP-1-induced food intake inhibition

Q: And the “effect on GLP-1-induced gastric emptying inhibition” value (gastric emptying; [4])?
A: altered

Q: Which “effect on GLP-1 induced NO production” value (distal ileum segment; ileum segments, Exendin 9 with GLP-1) does the source give for Exendin 9 here?
A: prevented GLP-1 induced NO production

Q: What about the “effect of co-treatment on L-Arginine-increased insulin secretion” value (insulin secretion; NCD-fed mice, co-treatment with L-Arginine) of the same molecule?
A: prevented the effect of GLP-1

Q: Which “EC50 of GLP-1-induced insulin secretion (fold change dose-response)” value ([2]; HC-HFD mice compared to NCD mice) does the source give for “GLP-1: Active GLP-1 7-36 (BACHEM), insulinotropic hormone, GLP-1 receptor agonist” here?
A: doubled

Q: What about the “EC50 of GLP-1-induced insulin secretion (fold change dose-response)” value ([2]; HFD-fed lean diabetic mice compared to NCD mice) of the same molecule?
A: dramatically increased

Q: And the “dose of GLP-1 reaching the maximal insulin secretion” value ([2]; NCD and HC-HFD-fed mice, GLP-1 i.p., plasma insulin 15 min after i.v. glucose)?
A: 7 nmol/kg

Q: And the GLP-1-induced insulin secretion ([2]; NCD-fed subdiaphragmatic vagotomy (SDVx) mice, GLP-1 7 nmol/kg)?
A: reduced

Q: What about the GLP-1-induced insulin secretion ([2]; NOD2, CD14 and TLR4 KO mice compared to wild type controls) of the same molecule?
A: dramatically reduced

Q: What about the GLP-1-induced insulin secretion ([2]; germ free mice) of the same molecule?
A: prevented

Q: What about the “GLP-1-induced NO production” value (primary enteric neurons; enteric neurons from HFD-fed mice versus NCD) of the same molecule?
A: dramatically resistant

Q: What about the “NO production by enteric neurons stimulated by GLP-1” value (primary enteric neurons; enteric neurons from germ free mice) of the same molecule?
A: could not be stimulated

Q: What about the “number of cFos positive neurons in response to GLP-1” value ([3]; NCD mice, GLP-1 7 nmol/kg) of the same molecule?
A: increases

Q: And the “number of cFos positive cells in the brain stem after GLP-1 administration” value ([3]; germ free mice)?
A: could not be increased

Q: And the “energy intake with increasing doses of GLP-1” value (food intake; HFD-fed lean diabetic mice compared to NCD-fed mice)?
A: only modestly reduced

Q: And the food intake (food intake; NOD2, CD14 and TLR4 KO mice)?
A: remained unchanged

Q: And the “energy intake after GLP-1 administration” value (food intake; sham versus SDVx-operated mice)?
A: similar

Q: What about the gastric emptying (gastric emptying; NOD2, CD14 and TLR4 KO mice) of the same molecule?
A: impaired

Q: And the “GLP-1 effect on gastric emptying” value (gastric emptying; SDVx-operated NCD-fed mice)?
A: induces GLP-1 resistance to gastric emptying

Q: And the “plasma concentrations of acetaminophen after GLP-1 administration (gastric emptying)” value (gastric emptying; both fat-enriched diet-fed mice (HC-HFD, HFD))?
A: remained elevated

Q: And the “GLP-1-induced NO production ex vivo from ileum segments” value (distal ileum segment; HFD-fed GLP-1 resistant mice)?
A: totally blunted

Q: What about the “GLP-1-induced NO production ex vivo from ileum segments” value (distal ileum segment; NCD versus HC-HFD-fed GLP-1 sensitive mice) of the same molecule?
A: similar
